A short description of series [1]: Coprecipitation of a chemical substance with a tannin or chelating agent and a metal salt in water. In kind it is physicochemical. Particulars: (+)-catechin 60 mg and lead acetate 60 mg.
Experimental: After stirring for a while, a coprecipitate was formed.
In a similar manner, for the following combinations of a chemical substance and a metal salt, a proportion of the chemical substance taken into a coprecipitate was determined.
Chemical substance: (B) acephate, (C) acetamiprid, (D) urea;
Chelating agent: (Q) sodium ethylenediamine tetraacetate, (R) aminotrimethylenephosphonic acid;
Metal salt: (b) potassium acetate, (c) manganese acetate, (d) aluminum acetate, (e) nickel acetate, (f) cobalt acetate, (g) calcium acetate, (h) magnesium acetate, (i) magnesium chloride and (j) sodium acetate.
After completion of dissolving, the solution was analyzed for dinotefuran. […] After stirring for a while, a coprecipitate was formed. The supernatant was analyzed for dinotefuran A to determine a proportion of dinotefuran taken into the coprecipitate.
The conditions of series [2]: cited from earlier work.

Molecules are shown by their SMILES.

Take `CNC(=N[N+](=O)[O-])NCC1CCOC1` (racemic) [dinotefuran, (RS)-1-methyl-2-nitro-3-[(3-tetrahydrofuryl)methyl]guanidine]: the “proportion of dinotefuran taken into the coprecipitate” value in series [1] stood at 41%. `CCOP(=O)(OCC)O/C(=C\Cl)c1ccc(Cl)cc1Cl` [CVP, Chlorfenvin-phos]: in series [2], the water solubility is recorded as 1500 ppm. Turning to `C/C(=N\C#N)N(C)Cc1ccc(Cl)nc1` [acetamiprid], in series [2], the water solubility is listed as 4200 ppm. `CCSCc1ccccc1OC(=O)NC` [etiofencarb]: the water solubility in series [2] is reported as 1800 ppm. Take `COc1nc(NC(C)C)nc(NC(C)C)n1` [promethone]: in series [2], the water solubility is given as 750 ppm.
